Measurements: US10858335B2 (Rigel Pharmaceuticals, Inc., priority 2014, dated 2020)

Test system: GDF8 signaling (p-SMAD-3 (Ser423/425))
Test: AlphaScreen SureFire SMAD3 (p-Ser423/425) assay, GDF8-stimulated cells (GDF pSMAD)
Assay type: cell-based
Conditions: Mus musculus, MPC-11, GDF8-stimulated pSMAD3, MPC11; tested as the salt form given; read-out: GDF pSMAD (MPC11) (μM), inhibition of GDF8 signaling

Structure (SMILES) | IC50 [µM]
Nc1ncnc2ccc(-c3cccnc3-c3cccc(OC(F)F)c3)cc12 [compound 982, 6-(2-(3-(difluoromethoxy)phenyl)pyridin-3-yl)quinazolin-4-amine] | 0.0411
Cc1ccc(C)c(-c2ncccc2-c2ccc3ncnc(N)c3c2)c1 [compound 983, 6-(2-(2,5-dimethylphenyl)pyridin-3-yl)quinazolin-4-amine] | 1.46
Cc1ccc(Cl)c(-c2ncccc2-c2ccc3ncnc(N)c3c2)c1 [compound 984, 6-(2-(2-chloro-5-methylphenyl)pyridin-3-yl)quinazolin-4-amine] | 0.45
Cc1cc(-c2cccnc2-c2ccc(F)c(Cl)c2)cc2c(N)ncnc12 [compound 985, 6-(2-(3-chloro-4-fluorophenyl)pyridin-3-yl)-8-methylquinazolin-4-amine] | 2.18
Cc1cc(-c2ncccc2-c2cc(C)c3ncnc(N)c3c2)ccc1F [compound 986, 6-(2-(4-fluoro-3-methylphenyl)pyridin-3-yl)-8-methylquinazolin-4-amine] | 0.956
Cc1cc(F)c(F)cc1-c1ncccc1-c1ccc2ncnc(N)c2c1 [compound 987, 6-(2-(4,5-difluoro-2-methylphenyl)pyridin-3-yl)quinazolin-4-amine] | 8
Cc1cc(C)c(-c2ncccc2-c2ccc3ncnc(N)c3c2)cc1F [compound 988, 6-(2-(5-fluoro-2,4-dimethylphenyl)pyridin-3-yl)quinazolin-4-amine] | 1.06
Cc1cc(F)c(Cl)cc1-c1ncccc1-c1ccc2ncnc(N)c2c1 [compound 989, 6-(2-(5-chloro-4-fluoro-2-methylphenyl)pyridin-3-yl)quinazolin-4-amine] | 0.692
Cc1cnc(-c2ccc(F)c(Cl)c2)c(-c2ccc3ncnc(N)c3c2)c1 [compound 990, 6-(2-(3-chloro-4-fluorophenyl)-5-methylpyridin-3-yl)quinazolin-4-amine] | 0.285
Cc1cnc(-c2cccc(O)c2)c(-c2ccc3ncnc(N)c3c2)c1 [compound 991, 3-(3-(4-aminoquinazolin-6-yl)-5-methylpyridin-2-yl)phenol] | 20.2
COc1cnc(-c2ccc(F)c(Cl)c2)c(-c2ccc3ncnc(N)c3c2)c1 [compound 992, 6-(2-(3-chloro-4-fluorophenyl)-5-methoxypyridin-3-yl)quinazolin-4-amine] | 1.86
COc1cnc(-c2cc(Cl)ccc2F)c(-c2ccc3ncnc(N)c3c2)c1 [compound 993, 6-(2-(5-chloro-2-fluorophenyl)-5-methoxypyridin-3-yl)quinazolin-4-amine] | 0.486
COc1cnc(-c2cccc(O)c2)c(-c2ccc3ncnc(N)c3c2)c1 [compound 994, 3-(3-(4-aminoquinazolin-6-yl)-5-methoxypyridin-2-yl)phenol] | 3.21
Nc1ncnc2ccc(-c3cc(F)cnc3-c3ccc(F)c(Cl)c3)cc12 [compound 998, 6-(2-(3-chloro-4-fluorophenyl)-5-fluoropyridin-3-yl)quinazolin-4-amine] | 2.44
Nc1ncnc2ccc(-c3cc(F)cnc3-c3cc(Cl)ccc3F)cc12 [compound 999, 6-(2-(5-chloro-2-fluorophenyl)-5-fluoropyridin-3-yl)quinazolin-4-amine] | 1.2
Nc1ncnc2ccc(-c3cc(F)cnc3-c3cccc(O)c3)cc12 [compound 1000, 3-(3-(4-aminoquinazolin-6-yl)-5-fluoropyridin-2-yl)phenol] | 6.5
Cc1cc(-c2ncccc2-c2ccc3ncnc(N)c3c2)c(C)cc1F [compound 1002, 6-(2-(4-fluoro-2,5-dimethylphenyl)pyridin-3-yl)quinazolin-4-amine] | 1.42
Nc1ncnc2ccc(-c3cccnc3-c3ccccc3F)cc12 [compound 1003, 6-(2-(2-fluorophenyl)pyridin-3-yl)quinazolin-4-amine] | 7.27
Cc1ccc(F)c(-c2ncccc2-c2ccc3ncnc(N)c3c2)c1 [compound 1004, 6-(2-(2-fluoro-5-methylphenyl)pyridin-3-yl)quinazolin-4-amine] | 0.203
Cc1ccc(O)cc1-c1ncccc1-c1ccc2ncnc(N)c2c1 [compound 1005, 3-(3-(4-aminoquinazolin-6-yl)pyridin-2-yl)-4-methylphenol] | 5.45
Nc1ncnc2ccc(-c3cccnc3-c3cc(O)ccc3F)cc12 [compound 1006, 3-(3-(4-aminoquinazolin-6-yl)pyridin-2-yl)-4-fluorophenol] | 0.735
CCc1cccc(-c2ncccc2-c2ccc3ncnc(N)c3c2)c1 [compound 1007, 6-(2-(3-ethylphenyl)pyridin-3-yl)quinazolin-4-amine] | 0.223
COc1cc(-c2ncccc2-c2ccc3ncnc(N)c3c2)c(Cl)cc1F [compound 1008, 6-(2-(2-chloro-4-fluoro-5-methoxyphenyl)pyridin-3-yl)quinazolin-4-amine] | 5.81
Nc1ncnc2ccc(-c3cccnc3-c3cc(OC(F)(F)F)ccc3Cl)cc12 [compound 1009, 6-(2-(2-chloro-5-(trifluoromethoxy)phenyl)pyridin-3-yl)quinazolin-4-amine] | 3.29

Structure (SMILES) | IC50 [µM]
Nc1ncnc2ccc(-c3cccnc3-c3ccc(F)c(OC(F)F)c3)cc12 [compound 1010, 6-(2-(3-(difluoromethoxy)-4-fluorophenyl)pyridin-3-yl)quinazolin-4-amine] | 0.562
COc1ccc(Cl)c(-c2ncccc2-c2ccc3ncnc(N)c3c2)c1 [compound 1011, 6-(2-(2-chloro-5-methoxyphenyl)pyridin-3-yl)quinazolin-4-amine] | 3.33
Cc1cc(-c2ncccc2-c2ccc3ncnc(N)c3c2)c(Cl)cc1F [compound 1012, 6-(2-(2-chloro-4-fluoro-5-methylphenyl)pyridin-3-yl)quinazolin-4-amine] | 0.728
Nc1ncnc2ccc(-c3cccnc3-c3cc(O)c(F)cc3F)cc12 [compound 1013, 5-(3-(4-aminoquinazolin-6-yl)pyridin-2-yl)-2,4-difluorophenol] | 1.05
Nc1ncnc2ccc(-c3cccnc3-c3cc(OC(F)(F)F)ccc3F)cc12 [compound 1014, 6-(2-(2-fluoro-5-(trifluoromethoxy)phenyl)pyridin-3-yl)quinazolin-4-amine] | 0.416
COc1ccc(C)c(-c2ncccc2-c2ccc3ncnc(N)c3c2)c1 [compound 1015, 6-(2-(5-methoxy-2-methylphenyl)pyridin-3-yl)quinazolin-4-amine] | 6.95
Nc1ncnc2ccc(-c3cccnc3-c3cc(O)ccc3Cl)cc12 [compound 1016, 3-(3-(4-aminoquinazolin-6-yl)pyridin-2-yl)-4-chlorophenol] | 2.77
Nc1ncnc2ccc(-c3cccnc3-c3cc(OC(F)F)ccc3Cl)cc12 [compound 1017, 6-(2-(2-chloro-5-(difluoromethoxy)phenyl)pyridin-3-yl)quinazolin-4-amine] | 2.08
Nc1ncnc2ccc(-c3cccnc3-c3cc(C(F)F)ccc3Cl)cc12 [compound 1018, 6-(2-(2-chloro-5-(difluoromethyl)phenyl)pyridin-3-yl)quinazolin-4-amine] | 0.735
Cc1cc(F)c(O)cc1-c1ncccc1-c1ccc2ncnc(N)c2c1 [compound 1019] | 7.43
Nc1ncnc2ccc(-c3cccnc3-c3cc(O)c(F)cc3Cl)cc12 [compound 1020, 5-(3-(4-aminoquinazolin-6-yl)pyridin-2-yl)-4-chloro-2-fluorophenol] | 4.77
Cc1cc(-c2ncccc2-c2ccc3ncnc(N)c3c2)ccc1F [compound 1021, 6-(2-(4-fluoro-3-methylphenyl)pyridin-3-yl)quinazolin-4-amine] | 0.175
COc1cc(-c2ncccc2-c2ccc3ncnc(N)c3c2)c(C)cc1F [compound 1022, 6-(2-(4-fluoro-5-methoxy-2-methylphenyl)pyridin-3-yl)quinazolin-4-amine] | 13.7
Nc1ncnc2ccc(-c3cccnc3-c3cc(C(F)F)ccc3F)cc12 [compound 1023, 6-(2-(5-(difluoromethyl)-2-fluorophenyl)pyridin-3-yl)quinazolin-4-amine] | 0.0958
Cc1ccc(C(F)F)cc1-c1ncccc1-c1ccc2ncnc(N)c2c1 [compound 1024, 6-(2-(5-(difluoromethyl)-2-methylphenyl)pyridin-3-yl)quinazolin-4-amine] | 0.577
Cc1cc(F)c(C(F)F)cc1-c1ncccc1-c1ccc2ncnc(N)c2c1 [compound 1025, 6-(2-(5-(difluoromethyl)-4-fluoro-2-methylphenyl)pyridin-3-yl)quinazolin-4-amine] | 0.958
Cc1cc(-c2ncccc2-c2ccc3ncnc(NCC(N)=O)c3c2)ccc1F [compound 1026, 2-((6-(2-(4-fluoro-3-methylphenyl)pyridin-3-yl)quinazolin-4-yl)amino)acetamide] | 0.737
Cc1cc(-c2ncccc2-c2ccc3ncnc(NC(C)C(N)=O)c3c2)ccc1F (centres unmarked) [compound 1027, 2-((6-(2-(4-fluoro-3-methylphenyl)pyridin-3-yl)quinazolin-4-yl)amino)propanamide] | 10.8
COC(=O)CNc1ncnc2ccc(-c3cccnc3-c3ccc(F)c(C)c3)cc12 [compound 1028, methyl (6-(2-(4-fluoro-3-methylphenyl)pyridin-3-yl)quinazolin-4-yl)glycinate] | 10.4
Cc1cc(-c2ncccc2-c2ccc3ncnc(NCCC(N)=O)c3c2)ccc1F [compound 1029, 3-((6-(2-(4-fluoro-3-methylphenyl)pyridin-3-yl)quinazolin-4-yl)amino)propanamide] | 2.61
Nc1ncnc2ccc(-c3cccnc3-c3cccc(OC4COC4)c3)cc12 [compound 1030, 6-(2-(3-(oxetan-3-yloxy)phenyl)pyridin-3-yl)quinazolin-4-amine] | 1.14
O=C(O)CNc1ncnc2ccc(-c3cccnc3-c3cc(Cl)ccc3F)cc12 [compound 1031, (6-(2-(5-chloro-2-fluorophenyl)pyridin-3-yl)quinazolin-4-yl)glycine] | 15.8
Cn1ccc(Nc2ncnc3ccc(-c4cccnc4-c4cc(Cl)ccc4F)cc23)n1 [compound 1032, 6-(2-(5-chloro-2-fluorophenyl)pyridin-3-yl)-N-(1-methyl-1H-pyrazol-3-yl)quinazolin-4-amine] | 1.09
